Results taken from paper PMC6934184, “Selective DNA-PKcs inhibition extends the therapeutic index of localized radiotherapy and chemotherapy” (The Journal of Clinical Investigation, 2019).

Molecular target: T1, PKN1 (PRK1) (Homo sapiens, UniProt Q16512)
T1 construct: purchased Thermo Fisher Scientific (Life Technologies) SelectScreen
Test: SelectScreen Z'LYTE
Format: biochemical
Method in brief: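 NU5455 was profiled across the SelectScreen Broad panel of kinase activity and binding assays. Z'LYTE reactions such as CSF1R ran at apparent Km ATP, while the Adapta CAMK1 assay used ATP listed as 10. Values are given as percent.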

T1 sequence (Q16512 whole entry): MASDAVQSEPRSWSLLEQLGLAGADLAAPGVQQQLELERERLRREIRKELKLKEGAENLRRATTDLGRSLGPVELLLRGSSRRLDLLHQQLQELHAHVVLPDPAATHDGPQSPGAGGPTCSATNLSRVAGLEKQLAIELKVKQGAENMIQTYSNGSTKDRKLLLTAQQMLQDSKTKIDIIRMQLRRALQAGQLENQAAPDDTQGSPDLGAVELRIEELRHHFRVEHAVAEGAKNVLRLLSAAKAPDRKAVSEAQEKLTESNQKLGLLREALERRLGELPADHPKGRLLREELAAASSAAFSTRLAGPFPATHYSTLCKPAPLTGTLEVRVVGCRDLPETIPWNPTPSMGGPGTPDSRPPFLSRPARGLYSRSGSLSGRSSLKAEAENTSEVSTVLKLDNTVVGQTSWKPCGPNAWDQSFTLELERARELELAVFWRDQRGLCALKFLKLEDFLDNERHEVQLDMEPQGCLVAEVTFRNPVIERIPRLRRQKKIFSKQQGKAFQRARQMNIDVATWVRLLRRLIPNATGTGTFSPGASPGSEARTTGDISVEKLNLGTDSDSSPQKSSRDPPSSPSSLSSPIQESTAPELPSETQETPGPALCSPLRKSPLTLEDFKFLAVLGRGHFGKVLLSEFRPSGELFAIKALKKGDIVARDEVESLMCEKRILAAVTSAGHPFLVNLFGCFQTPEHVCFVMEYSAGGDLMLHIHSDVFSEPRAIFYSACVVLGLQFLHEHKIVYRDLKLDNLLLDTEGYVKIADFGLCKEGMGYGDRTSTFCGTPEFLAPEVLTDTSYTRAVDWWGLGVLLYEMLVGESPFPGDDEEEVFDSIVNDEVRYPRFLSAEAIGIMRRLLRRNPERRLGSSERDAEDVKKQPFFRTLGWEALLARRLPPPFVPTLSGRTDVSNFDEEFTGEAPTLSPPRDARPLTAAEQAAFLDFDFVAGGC

Q: Which inhibition at 1 µM does the source give for `CN(C(=O)CN1CCOCC1)c1ccc2sc3c(-c4cccc5c(=O)cc(N6CC7CCC(C6)O7)oc45)cccc3c2c1` [NU5455] here?
A: 3.6%
